# Several values for one entry are separate records, joined by “and”; a condition that tells them apart may be missing. Identical values can stand only once.
# Tests used:
# [1] = Solubility in water; format: physicochemical
# Excerpt: All compositions are sterile filtered (e.g.) using a 0.2 micron filter (non sterile). • A. 0.1% DMSO 99.9% and RMPI 1640. Comments: with the low water solubility of JP4-039, DMSO is used in vitro experiments since it is a universal solvent which has been used in radiation biology experiments without any toxic effects. • B. 10% CrEL(Cremophor EL), 10% ethanol and 80% DI water. […] This formula dissolves the JP4-039. • C. Suspension of JP4-039 in F14 emulsion: Comments: F14 is a mixture of sesame oil, egg-phosphatidyl choline, Tween 80, and Span85 at ratios of 1:0.5:0.25:0.25 w/w, respectively. […] Comments: Sesame Seed Oil (100 mg/ml), Soy Phosphatidyl […] (50 mg/ml), JP4-039 (2 mg/ml), and Phosphate Buffered Saline. • Low dose (JP4-039): 5 mg/kg, 0.5 mg/ml. • Medium dose (JP4-039): 10 mg.kg, 1.0 mg/ml. • High dose (JP4-039): 20 mg/kg, 2.0 mg/ml. • Placebo/Vehicle (JP4-039): 0 mg/kg, 0 ing/ml • Exemplary dose (mouse): 200 μl of volume • E. JP4-039 dissolved in a solution of 45% 2-hydroxypropyl-β-cyclodextrin and 55% water. Comments: Cyclodextrins have a hydrophobic interior which compounds such as JP4-039 can complex in a rapid and reversible reaction. P-cyclodextrins have a cavity with an inner diameter of approximately 7.5 Å which is well suited for JP4-039.
# [2] = test system: NOD/SCID mice; assay: Proposed: human CD34+ cord blood stem cell seeding into irradiated limbs of NOD/SCID mice; conditions: mouse, in vivo
# Excerpt: Selection and optimization of a GS-nitroxide JP4-039 therapy to enhance human CD34+ cord blood multilineage hematopoietic stem cell progenitor cell seeding into irradiated limbs of NOD/SCID mice that have been prepared by engraftment of human marrow stromal cells.
# 2. Experiments using the optimal seeding protocol for human KM101 cells into irradiated NOD/SCID mice (anticipated to be those mice receiving MnSOD-PL prior to irradiation, and then injection with KM101-MnSOD/ds-red, supplemented with JP4-039 daily). Mice can then receive intravenous injection of 1×10^5 or 1×10^6 CD34+ LIN− cells from human umbilical cord blood origin. Control cells may be CD34+ LIN+ (differentiated progenitor) cells 10^5 or 10^6 per injection. Groups of 12 mice. These experiments may be carried out in two schedules. • a. […]
# In these experiments, mice can be followed and tested at serial time points out to two months after cord blood stem cell transplantation. The percent of human peripheral blood hematopoietic cells can be scored in weekly peripheral blood samples and number of cells forming CFU-GEMM colonies can be tested in explanted bones from sacrificed mice. […]
# Experiments in vitro supplementing in co-cultivation culture media the drug JP4-039 daily. […] Stromal cell cultures may be irradiated, cord blood cells added, and cultures scored as above. […]
# [3] = test system: C57BL/6NHsd mice, tibial bone wounds; assay: Unicortical tibial bone wound healing with or without 20 Gy limb irradiation; format: in vivo, mouse
compound,measurement,setting,value
"CC(C)C[C@@H](/C=C/CC(=O)NC1CC(C)(C)N([O])C(C)(C)C1)NC(=O)OC(C)(C)C [JP4-039, (S,E)-5-(tert-Butoxycarbonylamino)-7-methyloct-3-enoic acid-TEMPO]",solubility in water,[1],low solubility in water
same,hematopoietic cell survival and CFU-GEMM numbers,[2],further enhance hematopoietic cell survival and increase CFU-GEMM in numbers
same,bone wound healing in the absence of RT,[3]; 0 Gy,conferred more rapid healing
same,"Hole Diameter, mean ± SEM","[3]; 0 Gy, Day 7 post-drilling",1.02 ± 0.07 mm
same,"Hole Diameter, mean ± SEM","[3]; 0 Gy, Day 14 post-drilling",0.6±0.05 mm and 0.55±0.03 mm
same,"Hole Diameter, mean ± SEM","[3]; 0 Gy, Day 21 post-drilling",0.47 ± 0.04 mm
same,"Hole Diameter, mean ± SEM","[3]; 0 Gy, Day 28 post-drilling",0.23 ± 0.04 mm
same,"Hole Diameter, mean ± SEM","[3]; 20 Gy, Day 7 post-drilling",1.14 ± 0.04 mm
same,"Hole Diameter, mean ± SEM","[3]; 20 Gy, Day 14 post-drilling",0.92 ± 0.08 mm
same,"Hole Diameter, mean ± SEM","[3]; 20 Gy, Day 21 post-drilling",0.5±0.05 mm and 0.51±0.05 mm
same,"Hole Diameter, mean ± SEM","[3]; 20 Gy, Day 28 post-drilling",0.4±0.04 mm and 0.37±0.04 mm
same,RT-induced delay in osseus wound healing,[3]; given prior to 20 Gy RT,ameliorated this RT-induced delay
same,histology: bone fill of wounds versus irradiated mice,[3]; pre-treated prior to irradiation,more bone fill

# Source: US8748369B2, “Use of targeted nitroxide agents in bone healing” (University of Pittsburgh-Of the Commonwealth System of …, priority 2009, dated 2014)
